Experimental data published in patent publication US12098133B2, “Hydantoin containing deoxyuridine triphosphatase inhibitors” (CV6 Therapeutics (NI) Limited, priority 2015, dated 2024).

How the values were obtained:
[1] = tested on: colorectal (HCT116 and SW620) cell line models; assay: MTS growth inhibition assay; assay type: cell-based; details: 5-FU between 0 and 100 μmol/L; both colorectal cancer cell lines (HCT116 and SW620)
Procedure: The Cell Titer AQueous MTS assay (Promega) is carried out according to the manufacturers guidelines. […] Fraction affected (FA) is calculated from the percent growth inhibition: FA=(100−% growth inhibition)/100.
Test compounds are evaluated for their antitumor activity in colorectal cancer cells using the MTS growth inhibition assay. HCT116 and SW620 cells are exposed to increasing concentrations of each agent for 72 hours and growth inhibition is directly compared to vehicle-treated controls. The NSCLC cell lines A549 and H1299 are exposed to increasing concentrations of each agent for 72 hours and growth inhibition is directly compared to vehicle-treated controls.
Simultaneous treatment with increasing concentrations of 5-FU and a test compound at fixed concentrations of 25 μmol/L is determined.

[2] = tested on: colorectal (HCT116), breast (MCF-7) and non-small cell lung (H1299, A549, H358 and H460) cell line models; assay: Colony forming assay; assay type: cell-based; details: FUdR between 0.5 and 2.5 μmol/L; all cell lines evaluated
Procedure: Colony forming assay showing the ability of colon (SW620, HCT116), non-small cell lung (A549, H460, H1299 and H358) and breast (MCF7) cancer cells to survive and proliferate following transient 24 hour exposure to test compounds, FUdR and combinations are determined. Specifically, cells are seeded at densities between 50 and 100 cells/well in 24-well plates. Twenty-four hours later, cells are treated with increasing concentrations of a rtest compound, a fixed dose of FUdR and combinations of these. After 24 hours, drug is removed, cells are rinsed and allowed to outgrow for 10-14 days. At the conclusion of the outgrowth, cells are fixed in 60% ice cold methanol and stained with 0.1% crystal violet, scanned and counted. Data is presented as percentage of untreated controls (mean±SD). Fraction affected and combination indexes are calculated according to the method of Chou and Talalay where <1 is indicative of a synergistic drug interaction.
Colony forming assays are performed to evaluate the effectiveness of test compounds alone and in combination with the fluoropyrimidine thymidylate synthase (TS) inhibitor fluorodeoxyuridine (FUdR) at reducing cancer cell viability in colorectal (HCT116), breast (MCF-7) and non-small cell lung (H1299, A549, H358 and H460) cell line models. […]

O=c1[nH]cc(F)c(=O)[nH]1 [5-FU, 5-fluorouracil]
growth inhibition [1]: dose-dependent increases in growth inhibition

O=c1[nH]c(=O)n([C@H]2C[C@H](O)[C@@H](CO)O2)cc1F [FUdR, fluorodeoxyuridine]
colonies formed [2]: dose-dependent decreases in colonies formed
